Assays:
3T3-L1 adipocytes = test: Adiponectin secretion promoting effect, Western blotting of culture supernatant; format: cell-based; conditions: for adiponectin secretion promoting effect: in words, no time or concentration stated
Description: (§1) 3T3-L1 adipocytes can be allowed to grow and maintained in a 5% CO2 environment in high-glucose DMEM containing 50 U/ml penicillin, 50 μg/ml streptomycin, and 10% FCS. The 3T3-L1 cells were subcultured in a dish of 3.5 cm in diameter until confluent and then sufficiently differentiated into adipocytes by culture for another 2 days in the presence of insulin (10 μg/ml), dexamethasone ([…]), and IBMX (3-isobutyl-1-methylxanthine) (0.5 mM). Teadenol A (10 μM) or DMSO (vehicle control) was added to the sufficiently differentiated 3T3-L1 adipocytes, and each culture supernatant was collected after 8, 24, 32, and 48 hours. The amount of adiponectin secreted was determined by Western blotting method.

PTP1B = PTP1B expression inhibitory effect in 3T3-L1 adipocytes, Western blotting; format: cell-based; conditions: for PTP1B expression inhibitory effect: in words, no time or concentration stated
Description: as §1
Teadenol A (10 μM) or DMSO (vehicle control) was added to the sufficiently differentiated 3T3-L1 adipocytes. After culture for 8, 24, 32, and 48 hours, the cells were collected, and the amount of PTP1B […] and the amount of α-tubulin were determined by Western blotting method.

[1] = Test of visceral fat and adiponectin functions (method not described); format: in vivo; conditions: in words

C=C1C=C(C(=O)O)O[C@@H]2Cc3c(O)cc(O)cc3O[C@H]12 [Teadenol A, teadenol A]
adiponectin secretion promoting activity (3T3-L1 adipocytes; 10 μM, 3T3-L1 adipocytes, statistically significant difference after 24 and 48 hours): effective
PTP1B expression inhibitory activity (PTP1B; 10 μM, 3T3-L1 adipocytes, statistically significant difference after 32 hours): effective
adiponectin [1]: increasing adiponectin
visceral fat [1]: decreasing visceral fat

C=C1C=C(C(=O)O)O[C@@H]2Cc3c(O)cc(O)cc3O[C@@H]12 [Teadenol B, teadenol B]
adiponectin secretion promoting effect (3T3-L1 adipocytes): effective
PTP1B expression inhibitory effect (PTP1B): effective

C=C1C=C(C(=O)O)O[C@@H]2Cc3c(O)cc(O)cc3OC12 (some centres unmarked) [compound (1)]
adiponectin secretion promoting effect (3T3-L1 adipocytes): confirmed to have
PTP1B expression inhibitory effect (PTP1B): confirmed to have
